“And” between values parts separate entries of the source, which are not always exact repeats. Equal entries are not always repeated. Where two headings read alike, the source gives them in different places.
Legend:
human OPRK = assay: biochemical; format: binding
human OPRM [1] = target: T1, human OPRM (Homo sapiens, UniProt P35372); set-up: expressed in transfected cells; host or cells: CHO-K1 (cell line provided by Dr. Toll, Torrey Pines Institute); membranes prepared in house; conditions: cited from earlier work
human OPRM [2] = target: T1, human OPRM; format: cell-based; set-up: host or cells: CHO-K1
calf OPRM = calf OPRM (Bos taurus, UniProt P79350); conditions: cited from earlier work
human OPRM [3] = target: T1, human OPRM; assay: biochemical; set-up: expressed in transfected cells; host or cells: CHO-K1 (cell line provided by Dr. Toll, Torrey Pines Institute); membranes prepared in house; conditions: for Emax: read-out: Efficacy (Emax)
human OPRM [4] = target: T1, human OPRM; assay: biochemical; format: binding; set-up: expressed in transfected cells; host or cells: CHO-K1 (cell line provided by Dr. Toll, Torrey Pines Institute); membranes prepared in house; conditions: Ki
[5] = target: opioid receptor delta (OPRD) (Bos taurus, UniProt F1N083); conditions: printed in the SEM column; literature; cited from earlier work
OPRK [6] = target: T2, OPRK (Homo sapiens, UniProt P41145); assay: biochemical; set-up: expressed in transfected cells; host or cells: CHO-K1; conditions: for Emax: read-out: Efficacy (Emax)
human OPRM [7] = target: T1, human OPRM; set-up: expressed in transfected cells; host or cells: CHO-K1 (cell line provided by Dr. Toll, Torrey Pines Institute); membranes prepared in house; conditions: cited from earlier work; remark: listed apart in the source
calf OPRK = calf OPRK (Bos taurus, UniProt Q2KIP6); conditions: calf receptor; literature; cited from earlier work
OPRK [8] = target: T2, OPRK; assay: biochemical; format: binding; set-up: expressed in transfected cells; host or cells: CHO-K1; conditions: Ki
[9] = Single ascending oral dose pharmacokinetics of noribogaine in healthy volunteers (plasma and urine, LCMSMS); conditions: for AUC0-216 / AUC0-∞ / Cmax / Tmax / t1/2: mean (SD), n = 6
OPRK [10] = target: T2, OPRK; assay: cell-based; set-up: host or cells: CHO-K1
[11] = from literature (or literature/this work) values
[12] = 30 mg single oral noribogaine, plasma
[13] = 60 mg single oral noribogaine, plasma

Chain of calf OPRM (P79350 whole entry): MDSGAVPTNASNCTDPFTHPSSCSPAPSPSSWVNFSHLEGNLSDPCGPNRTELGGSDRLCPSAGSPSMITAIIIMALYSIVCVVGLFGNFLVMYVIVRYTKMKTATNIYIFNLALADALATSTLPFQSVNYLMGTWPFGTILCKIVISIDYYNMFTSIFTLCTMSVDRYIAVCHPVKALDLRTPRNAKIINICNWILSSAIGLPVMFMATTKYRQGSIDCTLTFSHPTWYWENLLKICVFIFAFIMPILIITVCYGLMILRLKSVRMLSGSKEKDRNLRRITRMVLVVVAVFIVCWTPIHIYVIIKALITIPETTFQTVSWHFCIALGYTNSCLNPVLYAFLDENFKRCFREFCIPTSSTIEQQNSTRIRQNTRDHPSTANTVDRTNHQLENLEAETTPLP
T1 sequence (P35372 whole entry): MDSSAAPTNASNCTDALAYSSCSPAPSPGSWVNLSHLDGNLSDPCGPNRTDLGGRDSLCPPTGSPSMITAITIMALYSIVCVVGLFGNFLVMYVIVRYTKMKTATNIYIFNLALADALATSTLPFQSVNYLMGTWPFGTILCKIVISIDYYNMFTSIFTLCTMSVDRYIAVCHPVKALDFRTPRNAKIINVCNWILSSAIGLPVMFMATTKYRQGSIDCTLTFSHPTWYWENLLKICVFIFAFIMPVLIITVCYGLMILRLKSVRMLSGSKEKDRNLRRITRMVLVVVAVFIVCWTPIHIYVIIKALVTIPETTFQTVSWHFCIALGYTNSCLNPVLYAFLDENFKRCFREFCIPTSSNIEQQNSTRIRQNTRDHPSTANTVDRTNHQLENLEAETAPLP
T2 sequence (P41145 whole entry): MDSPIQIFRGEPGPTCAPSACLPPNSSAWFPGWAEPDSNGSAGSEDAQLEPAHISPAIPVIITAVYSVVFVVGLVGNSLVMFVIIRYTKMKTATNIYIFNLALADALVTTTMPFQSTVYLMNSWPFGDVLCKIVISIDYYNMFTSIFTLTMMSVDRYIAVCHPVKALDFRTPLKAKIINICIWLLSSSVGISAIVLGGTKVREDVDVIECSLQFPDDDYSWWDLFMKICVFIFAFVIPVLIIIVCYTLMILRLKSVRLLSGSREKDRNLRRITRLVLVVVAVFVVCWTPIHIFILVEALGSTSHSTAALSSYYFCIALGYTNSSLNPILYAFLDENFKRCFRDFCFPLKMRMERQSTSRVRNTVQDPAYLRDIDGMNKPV
Chain of calf OPRK (Q2KIP6 whole entry): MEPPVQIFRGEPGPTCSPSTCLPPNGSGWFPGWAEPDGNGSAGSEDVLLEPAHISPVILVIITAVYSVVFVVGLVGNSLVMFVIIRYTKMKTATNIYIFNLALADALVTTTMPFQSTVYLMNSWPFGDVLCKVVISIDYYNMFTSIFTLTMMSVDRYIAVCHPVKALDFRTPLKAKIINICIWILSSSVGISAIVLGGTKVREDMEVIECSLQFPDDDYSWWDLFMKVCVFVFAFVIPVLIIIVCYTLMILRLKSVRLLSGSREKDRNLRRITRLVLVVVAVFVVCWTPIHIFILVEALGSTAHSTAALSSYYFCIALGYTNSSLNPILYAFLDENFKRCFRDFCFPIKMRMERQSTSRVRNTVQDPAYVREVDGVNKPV
Chain of opioid receptor delta (OPRD) (F1N083 1-372): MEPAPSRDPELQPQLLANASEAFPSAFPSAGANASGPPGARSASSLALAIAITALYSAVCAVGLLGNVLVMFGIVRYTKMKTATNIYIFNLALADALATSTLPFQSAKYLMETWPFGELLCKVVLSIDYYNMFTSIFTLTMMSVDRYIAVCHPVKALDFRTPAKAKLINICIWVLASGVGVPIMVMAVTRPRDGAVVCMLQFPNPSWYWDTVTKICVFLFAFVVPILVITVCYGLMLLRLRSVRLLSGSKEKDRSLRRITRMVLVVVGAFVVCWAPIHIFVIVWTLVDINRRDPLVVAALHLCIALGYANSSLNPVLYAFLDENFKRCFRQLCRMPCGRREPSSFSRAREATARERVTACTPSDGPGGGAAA

## [Met]-Enkephalin
Human OPRK
  ΔpKi = pKi(OPRK) − pKi(OPRM), OPRK Specificity: <−3
Human OPRM [1]
  Efficacy: ~95%
Human OPRM [2]
  Efficacy: 100%

## CCC1CC2CC3c4[nH]c5ccc(OC)cc5c4CCN(C2)C13 (stereo not shown) [Ibogaine, ibogaine, reference compound]
Calf OPRM; calf receptor, literature
  Ki: 11000 nM
  pKi: 5.0
Human OPRM [3]
  stimulation of the OPRM G-protein pathway: failed to stimulate the OPRM G-protein pathway
  Emax: -2.9%
Human OPRM [4]
  Ki: 6920 ± 830 nM
[5]
  Ki at OPRD: (OPRD − N.Q.)

## C[C@@H](NC(=O)[C@@H](N)Cc1ccc(O)cc1)C(=O)NCC(=O)N(C)[C@@H](Cc1ccccc1)C(=O)NCCO [DAMGO, [D-Ala2, NMe-Phe4, Gly-ol5]-enkephalin]
Human OPRK; [11]
  ΔpKi = pKi(OPRK) − pKi(OPRM), OPRK Specificity: <−3

## C=C1CC[C@@]2(O)[C@H]3Cc4ccc(O)c5c4[C@@]2(CCN3CC2CC2)[C@H]1O5 [Nalmefene, nalmefene, reference compound]
OPRK [6]
  Efficacy (inhibition): −65%
  e-coupling (pKi-pEC50): 0.92
  e-coupling (pKi-pKe): 0.23
  own reduced signal level to which rival agonist signal is leveled down: 30%
  Emax: 35 ± 4.7%

## NC(N)=Nc1ccc2c3c([nH]c2c1)[C@@H]1Oc2c(O)ccc4c2[C@@]12CCN(CC1CC1)[C@H](C4)[C@]2(O)C3 [6′GNTI, 6′-guanidinonaltrindole]
Human OPRM [7]
  Ki: 82 nM
  pKi: 7.1
Human OPRK; [11]
  ΔpKi = pKi(OPRK) − pKi(OPRM), OPRK Specificity: 1.84
Human OPRM [1]; activation, literature
  EC50: > 1000 nM
  Efficacy: 0~ %

## COCCC1CC2CN3CCc4c([nH]c5ccccc45)C(C(=O)OC)(C2)C13 (stereo not shown) [18-MC, 18-methoxycoronaridine, reference compound]
Calf OPRK
  Ki: 5100 nM
  pKi: 5.3
Calf OPRM; Glick, Maisonneuve et al. 2000
  reported selectivity at OPRM: 5 ×
Calf OPRM; calf receptor, literature
  pKi: 6.0
Human OPRM [3]
  stimulation of the OPRM G-protein pathway: failed to stimulate the OPRM G-protein pathway
  Emax: < 5%
OPRK [8]; Table 9 summary column, value of this work
  Ki: 1800 nM
OPRK [8]; [3H]-U69,593
  Ki: 1840 ± 120 nM
Human OPRK; [11]
  ΔpKi = pKi(OPRK) − pKi(OPRM), OPRK Specificity: −0.7
Human OPRK; from values of this work
  ΔpKi = pKi(OPRK) − pKi(OPRM), OPRK Specificity: 0.1
Human OPRK; in these assays
  affinity at human OPRK versus OPRM: equi-affine to both human OPRK and OPRM
OPRK [6]
  EC50: ~16000 nM
  Efficacy (inhibition): −100%
  e-coupling (pKi-pEC50): 0.94~
  e-coupling (pKi-pKe): 0.39
  stimulation of [35S]GTPγS binding to OPRK: failed to stimulate
  Emax: < 5%
OPRK [6]; Ke
  Ki: 2800 nM and 2900 nM and 4300 nM
Human OPRM [4]
  Ki: 2260 nM and 2360 nM

## CC[C@H]1C[C@@H]2C[C@H]3c4[nH]c5ccc(OC6OC(C(=O)O)C(O)C(O)C6O)cc5c4CCN(C2)[C@@H]13 (stereo partly shown) [Noribogaine glucuronide, noribogaine glucuronide]
[9]; 30 mg and 60 mg dose groups
  proportion of noribogaine glucuronide Cmax and AUC relative to noribogaine: 3-4%
[9]; [12]
  AUC0-216: 25.7 (9.1) ng · hr/ml
  AUC0-∞: 25.8 (9.3) ng · hr/ml
  Cmax: 1.8 (0.6) ng/ml
  Tmax: 3.0 (0.6) hr
  t1/2: 20.6 (4.9) hr
[9]; [13]
  AUC0-216: 65.0 (21.5) ng · hr/ml
  AUC0-∞: 67.1 (21.9) ng · hr/ml
  Cmax: 4.1 (1.2) ng/ml
  Tmax: 3.8 (1.2) hr
  t1/2: 23.1 (3.0) hr
[9]; plasma, 30 mg and 60 mg noribogaine
  time by which detected in all subjects: ≤ 0.75 h
[9]; plasma, across dose groups
  Mean half-life: 21 to 23 h
  time of peak concentrations after oral noribogaine dosing: 3 to 4 h

## Oc1ccc2c3c1O[C@H]1c4[nH]c5c(c4C[C@@]4(O)[C@@H](C2)N(CC2CC2)CC[C@]314)C[C@@]1(O)[C@H]2Cc3ccc(O)c4c3[C@@]1(CCN2CC1CC1)[C@H]5O4 [NorBNI, nor-binaltorphimine, reference compound]
Human OPRK; [11]
  ΔpKi = pKi(OPRK) − pKi(OPRM), OPRK Specificity: 2.0
OPRK [6]
  Efficacy (inhibition): −100%
  e-coupling (pKi-pKe): −0.1
OPRK [10]; inhibitory component
  e-coupling (pKi-pKe): 0.27
OPRK [10]; inhibitory component against Dynorphin A
  Efficacy (inhibition): −100%

From US10660900B2 (priority 2014, dated 2020)
